PubChem BioAssay (NCI)
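Five compound concentrations were applied to cells in 96-well plates for 48 hours; endpoints were derived by simple linear interpolation of the resulting dose-response curve. At the TGI there is no net growth.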

Tests used:
Assay in all cases: inhibition of tumour cell growth, NCI panel, 48 h
HT29 colon = tested on: HT29 colon
NCI-H460 lung = tested on: NCI-H460 lung
SK-MEL-28 melanoma = tested on: SK-MEL-28 melanoma
LOX IMVI melanoma = tested on: LOX IMVI melanoma
NCI-H23 lung = tested on: NCI-H23 lung
MOLT-4 leukemia = tested on: MOLT-4 leukemia
MCF7 breast = tested on: MCF7 breast
M14 melanoma = tested on: M14 melanoma
KM12 colon = tested on: KM12 colon
SF-295 CNS = tested on: SF-295 CNS
UACC-62 melanoma = tested on: UACC-62 melanoma
CCRF-CEM leukemia = tested on: CCRF-CEM leukemia
SR leukemia = tested on: SR leukemia
UO-31 renal = tested on: UO-31 renal
A498 renal = tested on: A498 renal
RXF 393 renal = tested on: RXF 393 renal
SF-539 CNS = tested on: SF-539 CNS
MDA-MB-435 = tested on: MDA-MB-435
MDA-N = tested on: MDA-N
NCI-H522 lung = tested on: NCI-H522 lung
OVCAR-4 ovarian = tested on: OVCAR-4 ovarian
A549 NSCLC = tested on: A549 NSCLC
UACC-257 melanoma = tested on: UACC-257 melanoma
HS 578T breast = tested on: HS 578T breast
PC-3 prostate = tested on: PC-3 prostate
IGROV1 ovarian = tested on: IGROV1 ovarian
HCT-15 colon = tested on: HCT-15 colon
OVCAR-5 ovarian = tested on: OVCAR-5 ovarian
MALME-3M melanoma = tested on: MALME-3M melanoma
RPMI-8226 leukemia = tested on: RPMI-8226 leukemia
786-0 renal = tested on: 786-0 renal
U251 CNS = tested on: U251 CNS
SNB-19 CNS = tested on: SNB-19 CNS
MDA-MB-231 breast = tested on: MDA-MB-231 breast
HL-60(TB) leukemia = tested on: HL-60(TB) leukemia
OVCAR-8 ovarian = tested on: OVCAR-8 ovarian
SK-MEL-2 melanoma = tested on: SK-MEL-2 melanoma
HCT-116 colon = tested on: HCT-116 colon
SW-620 colon = tested on: SW-620 colon
SNB-75 CNS = tested on: SNB-75 CNS
HCC-2998 colon = tested on: HCC-2998 colon
OVCAR-3 ovarian = tested on: OVCAR-3 ovarian
COLO 205 colon = tested on: COLO 205 colon
DU-145 prostate = tested on: DU-145 prostate
NCI-H226 lung = tested on: NCI-H226 lung
BT-549 breast = tested on: BT-549 breast
TK-10 renal = tested on: TK-10 renal
NCI/ADR-RES ovarian = tested on: NCI/ADR-RES ovarian
K-562 leukemia = tested on: K-562 leukemia
HOP-92 NSCLC = tested on: HOP-92 NSCLC
EKVX NSCLC = tested on: EKVX NSCLC
CAKI-1 renal = tested on: CAKI-1 renal
SK-MEL-5 melanoma = tested on: SK-MEL-5 melanoma
SK-OV-3 ovarian = tested on: SK-OV-3 ovarian
ACHN renal = tested on: ACHN renal
SF-268 CNS = tested on: SF-268 CNS
HOP-62 NSCLC = tested on: HOP-62 NSCLC
SN12C renal = tested on: SN12C renal

In the case of CC(C)(Cc1ccccc1)NC1=NCCO1, the TGI (HT29 colon) is reported as > 100 µM, the TGI (NCI-H460 lung) is reported as > 100 µM and the TGI (SK-MEL-28 melanoma) is reported as > 100 µM. For the same compound, the TGI (LOX IMVI melanoma) was > 100 µM, the TGI (NCI-H23 lung) was > 100 µM and the TGI (MOLT-4 leukemia) was > 100 µM. The TGI (MCF7 breast) was > 100 µM, the TGI (M14 melanoma) was > 100 µM and the TGI (KM12 colon) was > 100 µM. For the same compound, the TGI (SF-295 CNS) was > 100 µM, the TGI (UACC-62 melanoma) was > 100 µM and the TGI (CCRF-CEM leukemia) was > 100 µM. The TGI (SR leukemia) was > 100 µM, the TGI (UO-31 renal) was > 100 µM and the TGI (A498 renal) was > 100 µM. The TGI (RXF 393 renal) was > 100 µM, the TGI (SF-539 CNS) was > 100 µM and the TGI (MDA-MB-435) was > 100 µM. The TGI (MDA-N) was > 100 µM, the TGI (NCI-H522 lung) was > 100 µM and the TGI (OVCAR-4 ovarian) was > 100 µM. For the same compound, the TGI (A549 NSCLC) was > 100 µM, the TGI (UACC-257 melanoma) was > 100 µM and the TGI (HS 578T breast) was > 100 µM. The TGI (PC-3 prostate) was > 100 µM, the TGI (IGROV1 ovarian) was > 100 µM and the TGI (HCT-15 colon) was > 100 µM. For the same compound, the TGI (OVCAR-5 ovarian) was > 100 µM, the TGI (MALME-3M melanoma) was > 100 µM and the TGI (RPMI-8226 leukemia) was > 100 µM. For the same compound, the TGI (786-0 renal) was > 100 µM, the TGI (U251 CNS) was > 100 µM and the TGI (SNB-19 CNS) was > 100 µM. For the same compound, the TGI (MDA-MB-231 breast) was > 100 µM, the TGI (HL-60(TB) leukemia) was > 100 µM and the TGI (OVCAR-8 ovarian) was > 100 µM. For the same compound, the TGI (SK-MEL-2 melanoma) was > 100 µM, the TGI (HCT-116 colon) was > 100 µM and the TGI (SW-620 colon) was > 100 µM. For the same compound, the TGI (SNB-75 CNS) was > 100 µM, the TGI (HCC-2998 colon) was > 100 µM and the TGI (OVCAR-3 ovarian) was > 100 µM. The TGI (COLO 205 colon) was > 100 µM, the TGI (DU-145 prostate) was > 100 µM and the TGI (NCI-H226 lung) was > 100 µM. For the same compound, the TGI (BT-549 breast) was > 100 µM, the TGI (TK-10 renal) was > 100 µM and the TGI (NCI/ADR-RES ovarian) was > 100 µM. The TGI (K-562 leukemia) was > 100 µM, the TGI (HOP-92 NSCLC) was > 100 µM and the TGI (EKVX NSCLC) was > 100 µM. For the same compound, the TGI (CAKI-1 renal) was > 100 µM, the TGI (SK-MEL-5 melanoma) was > 100 µM and the TGI (SK-OV-3 ovarian) was > 100 µM. For the same compound, the TGI (ACHN renal) was > 100 µM.

With O=S(=O)(c1ccccc1)n1c2cc3cccnc3nc2c2cccnc21 the TGI (HT29 colon) was > 100 µM, the TGI (NCI-H460 lung) was > 100 µM and the TGI (SK-MEL-28 melanoma) was > 100 µM. The TGI (LOX IMVI melanoma) was > 100 µM, the TGI (NCI-H23 lung) was > 100 µM and the TGI (SF-268 CNS) was > 100 µM. For the same compound, the TGI (MOLT-4 leukemia) was > 100 µM, the TGI (MCF7 breast) was > 100 µM and the TGI (M14 melanoma) was > 100 µM. For the same compound, the TGI (KM12 colon) was > 100 µM, the TGI (SF-295 CNS) was > 100 µM and the TGI (CCRF-CEM leukemia) was > 100 µM. The TGI (SR leukemia) was 30.4 µM, the TGI (UO-31 renal) was > 100 µM and the TGI (A498 renal) was > 100 µM. For the same compound, the TGI (RXF 393 renal) was 90.9 µM, the TGI (HOP-62 NSCLC) was > 100 µM and the TGI (MDA-MB-435) was 60 µM. The TGI (MDA-N) was > 100 µM, the TGI (NCI-H522 lung) was > 100 µM and the TGI (OVCAR-4 ovarian) was > 100 µM. For the same compound, the TGI (A549 NSCLC) was > 100 µM, the TGI (UACC-257 melanoma) was > 100 µM and the TGI (HS 578T breast) was > 100 µM. For the same compound, the TGI (PC-3 prostate) was > 100 µM, the TGI (IGROV1 ovarian) was > 100 µM and the TGI (HCT-15 colon) was > 100 µM. For the same compound, the TGI (OVCAR-5 ovarian) was > 100 µM, the TGI (MALME-3M melanoma) was > 100 µM and the TGI (RPMI-8226 leukemia) was 56.6 µM. The TGI (786-0 renal) was > 100 µM, the TGI (U251 CNS) was > 100 µM and the TGI (SNB-19 CNS) was > 100 µM. For the same compound, the TGI (MDA-MB-231 breast) was > 100 µM, the TGI (HL-60(TB) leukemia) was 48.1 µM and the TGI (OVCAR-8 ovarian) was > 100 µM. The TGI (SK-MEL-2 melanoma) was > 100 µM, the TGI (HCT-116 colon) was > 100 µM and the TGI (SW-620 colon) was > 100 µM. For the same compound, the TGI (SNB-75 CNS) was > 100 µM, the TGI (HCC-2998 colon) was > 100 µM and the TGI (OVCAR-3 ovarian) was > 100 µM. For the same compound, the TGI (COLO 205 colon) was > 100 µM, the TGI (NCI-H226 lung) was > 100 µM and the TGI (BT-549 breast) was > 100 µM. For the same compound, the TGI (TK-10 renal) was > 100 µM, the TGI (NCI/ADR-RES ovarian) was > 100 µM and the TGI (K-562 leukemia) was 55.3 µM. For the same compound, the TGI (HOP-92 NSCLC) was > 100 µM, the TGI (SN12C renal) was > 100 µM and the TGI (EKVX NSCLC) was > 100 µM. The TGI (CAKI-1 renal) was > 100 µM, the TGI (SK-MEL-5 melanoma) was > 100 µM and the TGI (SK-OV-3 ovarian) was > 100 µM. For the same compound, the TGI (ACHN renal) was > 100 µM.
